Test results taken from article PMC11876601 (Molecular Systems Biology, 2025).
Read-outs that look alike come from different tables or passages of the source.

Legend:
Experiment in all cases: Drug combination viability screen (ATPlite, 72 h);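 on AUC: area under vehicle-normalized viability curve scaled 0 to 100 percent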;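 on Curve bottom: fraction of vehicle control viability from four-parameter log-logistic fit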
Type in all cases: cell-based, human
HuP-T4 cells = tested on: HuP-T4 cells; parameters: AUC: unit not given beside the values; details: for EC50: Homo sapiens;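 on AUC: area under vehicle-normalized viability curve scaled 0 to 100 percent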;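 on Curve bottom: fraction of vehicle control viability from four-parameter log-logistic fit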
Description: (§1) Cell viability was assessed by measuring ATP levels to indicate metabolic activity.
(§2) Afterward, small amounts were transferred to 384-well intermediate plates (Greiner Bio-One GmbH, Germany). […] For drug combination screening, 1000 to 5000 cells were seeded into 384-well plates (CulturPlate™, Perkin Elmer, MA, USA) using a Multidrop™ Combi Reagent Dispenser (Thermo Scientific, MA, USA) in 50 µl medium per well 24 h prior to drug treatment (seeding densities see Appendix Table S1). […] The final DMSO concentration in each well was 0.2%. […] Eight wells per plate without library drug served as negative controls, and sixteen wells per plate containing 5 µM Staurosporine served as positive controls. Control plates not containing any drug were used to correct for incubation effects, and data quality was assessed by calculation of Z-prime of positive and negative controls according to1 Z-prime=1−3SDpos+3SDneg/[…] where SD is the standard deviation. […] Dose–response curves from the experimental and hypothetical data were compared, and shifts in AUC were used to describe combination effects (AUC∆ = AUChypothetical − AUCexperimental). […] Only combinations with R^2 > 0.8 in both conditions were considered in the synergy analysis.

Suit2-07 cells = tested on: Suit2-07 cells; parameters: AUC: unit not given beside the values; details: for EC50: Homo sapiens;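 on AUC: area under vehicle-normalized viability curve scaled 0 to 100 percent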;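 on Curve bottom: fraction of vehicle control viability from four-parameter log-logistic fit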
Description: as §1, §2

MiaPaCa-2 cells = tested on: MiaPaCa-2 cells; parameters: AUC: unit not given beside the values; details: for EC50: Homo sapiens;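 on AUC: area under vehicle-normalized viability curve scaled 0 to 100 percent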;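 on Curve bottom: fraction of vehicle control viability from four-parameter log-logistic fit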
Description: as §1, §2

BxPC-3 cells = tested on: BxPC-3 cells; parameters: AUC: unit not given beside the values; details: for EC50: Homo sapiens, BXPC-3;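 on AUC: area under vehicle-normalized viability curve scaled 0 to 100 percent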
Description: as §1, §2

PaTu-8988-T cells = tested on: PaTu-8988-T cells; parameters: AUC: unit not given beside the values; details: for EC50: Homo sapiens, PaTu 8988t;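 on AUC: area under vehicle-normalized viability curve scaled 0 to 100 percent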
Description: as §1, §2

[1] = tested on: HPDE (immortalized pancreatic duct cell line); details: HPDE; for EC50: Homo sapiens;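 on AUC: area under vehicle-normalized viability curve scaled 0 to 100 percent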

`Nc1ccn([C@@H]2O[C@H](CO)[C@@H](O)C2(F)F)c(=O)n1` [GEM, Gemcitabine] was tested, and the EC50 (HuP-T4 cells; HuP-T4, read-out: EC50) was 3.08 nM, the EC50 (HuP-T4 cells; HuP-T4, read-out: pEC50 (converted)) was 3.09 nM and the Reponse (HuP-T4 cells; HuP-T4, R1, 13.72 nM) was 312040. For the same compound, the Reponse (HuP-T4 cells; HuP-T4, R1, 370.37 nM) was 231280, the Reponse (HuP-T4 cells; HuP-T4, R1, 1111.11 nM) was 191240 and the Reponse (HuP-T4 cells; HuP-T4, R1, 3333.33 nM) was 187320. For the same compound, the Reponse (HuP-T4 cells; HuP-T4, R1, 10000 nM) was 235360, the Reponse (HuP-T4 cells; HuP-T4, R2, 13.72 nM) was 353160 and the Reponse (HuP-T4 cells; HuP-T4, R2, 41.15 nM) was 432720. The Reponse (HuP-T4 cells; HuP-T4, R2, 123.46 nM) was 313280, the Reponse (HuP-T4 cells; HuP-T4, R2, 370.37 nM) was 314320 and the Curve bottom (HuP-T4 cells; HuP-T4, GEM curve fit) was 0.12. The Curve effect size (HuP-T4 cells; HuP-T4, GEM curve fit) was 0.88, the Curve slope (HuP-T4 cells; HuP-T4, GEM curve fit) was 4.56 and the Curve top (HuP-T4 cells; HuP-T4, GEM curve fit) was 0.99. The AUC (HuP-T4 cells; HuP-T4, GEM curve fit, in %) was 35.37, the EC50 (Suit2-07 cells; read-out: EC50) was 7.58 nM and the EC50 (Suit2-07 cells; read-out: pEC50 (converted)) was 7.59 nM. For the same compound, the Reponse (Suit2-07 cells; Suit2-07, R1, 13.72 nM) was 2323360, the Reponse (Suit2-07 cells; Suit2-07, R1, 41.15 nM) was 1614080 and the Reponse (Suit2-07 cells; Suit2-07, R1, 123.46 nM) was 1487640. It also gave a Reponse (Suit2-07 cells; Suit2-07, R1, 370.37 nM) of 1265760, a Reponse (Suit2-07 cells; Suit2-07, R1, 1111.11 nM) of 1242400 and a Reponse (Suit2-07 cells; Suit2-07, R1, 3333.33 nM) of 1298400. For the same compound, the Reponse (Suit2-07 cells; Suit2-07, R1, 10000 nM) was 913840, the Reponse (Suit2-07 cells; Suit2-07, replicate R2, dose 13.72 nM, raw signal) was 3086160 and the Reponse (Suit2-07 cells; Suit2-07, replicate R2, dose 41.15 nM, raw signal) was 2294600. It also gave a Reponse (Suit2-07 cells; Suit2-07, replicate R2, dose 123.46 nM, raw signal) of 1746480, a Reponse (Suit2-07 cells; Suit2-07, replicate R2, dose 370.37 nM, raw signal) of 1730640 and a Reponse (Suit2-07 cells; Suit2-07, replicate R2, dose 1111.11 nM, raw signal) of 1568520. For the same compound, the Reponse (Suit2-07 cells; Suit2-07, replicate R2, dose 3333.33 nM, raw signal) was 1439120, the Reponse (Suit2-07 cells; Suit2-07, replicate R2, dose 10000 nM, raw signal) was 1173920 and the Curve bottom (Suit2-07 cells; Suit2-07, GEM curve fit) was 0.19. The Curve effect size (Suit2-07 cells; Suit2-07, GEM curve fit) was 0.81, the Curve slope (Suit2-07 cells; Suit2-07, GEM curve fit) was 1.96 and the Curve top (Suit2-07 cells; Suit2-07, GEM curve fit) was 1.00. It also gave an AUC (Suit2-07 cells; Suit2-07, GEM curve fit, in %) of 46.93, an EC50 (MiaPaCa-2 cells; MIA PaCa-2, read-out: EC50,GEM) of at least 10 nM and an EC50 (MiaPaCa-2 cells; MIA PaCa-2, read-out: EC50) of 13.6 nM. It also gave an EC50 (MiaPaCa-2 cells; MIA PaCa-2, read-out: pEC50 (converted)) of 13.5 nM, a Reponse (MiaPaCa-2 cells; MiaPaCa-2, R1, 13.72 nM) of 4319964 and a Reponse (MiaPaCa-2 cells; MiaPaCa-2, R1, 41.15 nM) of 2249377. It also gave a Reponse (MiaPaCa-2 cells; MiaPaCa-2, R1, 123.46 nM) of 1464819, a Reponse (MiaPaCa-2 cells; MiaPaCa-2, R1, 370.37 nM) of 1237785 and a Reponse (MiaPaCa-2 cells; MiaPaCa-2, R1, 1111.11 nM) of 1237333. The Reponse (MiaPaCa-2 cells; MiaPaCa-2, R1, 3333.33 nM) was 1424454, the Reponse (MiaPaCa-2 cells; MiaPaCa-2, R1, 10000 nM) was 1232056 and the Reponse (MiaPaCa-2 cells; MiaPaCa-2, R2, 13.72 nM) was 3184320. It also gave a Reponse (MiaPaCa-2 cells; MiaPaCa-2, R2, 41.15 nM) of 1827720, a Reponse (MiaPaCa-2 cells; MiaPaCa-2, R2, 123.46 nM) of 1167560 and a Reponse (MiaPaCa-2 cells; MiaPaCa-2, R2, 370.37 nM) of 1308800. The Reponse (MiaPaCa-2 cells; MiaPaCa-2, R2, 1111.11 nM) was 1074400, the Reponse (MiaPaCa-2 cells; MiaPaCa-2, R2, 3333.33 nM) was 1132280 and the Reponse (MiaPaCa-2 cells; MiaPaCa-2, R2, 10000 nM) was 1191360. For the same compound, the Curve bottom (MiaPaCa-2 cells; MiaPaCa-2, GEM curve fit) was 0.18, the Curve effect size (MiaPaCa-2 cells; MiaPaCa-2, GEM curve fit) was 0.81 and the Curve slope (MiaPaCa-2 cells; MiaPaCa-2, GEM curve fit) was 1.52. It also gave a Curve top (MiaPaCa-2 cells; MiaPaCa-2, GEM curve fit) of 0.96, an AUC (MiaPaCa-2 cells; MiaPaCa-2, GEM curve fit, in %) of 51.47 and a Reponse (BxPC-3 cells; BxPC-3, R1, 41.15 nM) of 1061560. The Reponse (BxPC-3 cells; BxPC-3, R1, 123.46 nM) was 1199800, the Reponse (BxPC-3 cells; BxPC-3, R1, 370.37 nM) was 1177280 and the Reponse (BxPC-3 cells; BxPC-3, R1, 1111.11 nM) was 1044400. The Reponse (BxPC-3 cells; BxPC-3, R1, 3333.33 nM) was 1111640, the Reponse (BxPC-3 cells; BxPC-3, R1, 10000 nM) was 1115240 and the Reponse (BxPC-3 cells; BxPC-3, R2, 13.72 nM) was 1392120. The Reponse (BxPC-3 cells; BxPC-3, R2, 41.15 nM) was 1083440, the Reponse (BxPC-3 cells; BxPC-3, R2, 123.46 nM) was 1301640 and the Reponse (BxPC-3 cells; BxPC-3, R2, 370.37 nM) was 1316120. The Reponse (BxPC-3 cells; BxPC-3, R2, 1111.11 nM) was 1172200, the Reponse (BxPC-3 cells; BxPC-3, R2, 3333.33 nM) was 1101720 and the Reponse (BxPC-3 cells; BxPC-3, R2, 10000 nM) was 982880. It also gave a Curve bottom (BxPC-3 cells; BxPC-3, GEM curve fit) of 0.26, a Curve effect size (BxPC-3 cells; BxPC-3, GEM curve fit) of 0.75 and a Curve slope (BxPC-3 cells; BxPC-3, GEM curve fit) of 1.82. It also gave a Curve top (BxPC-3 cells; BxPC-3, GEM curve fit) of 1.03, an AUC (BxPC-3 cells; BxPC-3, GEM curve fit, in %) of 45.89 and an EC50 (BxPC-3 cells; read-out: EC50) of 3.59 nM. It also gave an EC50 (BxPC-3 cells; read-out: pEC50 (converted)) of 3.55 nM, an EC50 (PaTu-8988-T cells; read-out: EC50,GEM) of at least 10 nM and an EC50 (PaTu-8988-T cells; read-out: EC50) of 9.74 nM. For the same compound, the EC50 (PaTu-8988-T cells; read-out: pEC50 (converted)) was 9.77 nM, the Reponse (PaTu-8988-T cells; PaTu-8988-T, R1, 13.72 nM) was 1159840 and the Reponse (PaTu-8988-T cells; PaTu-8988-T, R1, 41.15 nM) was 749200. For the same compound, the Reponse (PaTu-8988-T cells; PaTu-8988-T, R1, 123.46 nM) was 706000, the Reponse (PaTu-8988-T cells; PaTu-8988-T, R1, 370.37 nM) was 666320 and the Reponse (PaTu-8988-T cells; PaTu-8988-T, R1, 1111.11 nM) was 670960. For the same compound, the Reponse (PaTu-8988-T cells; PaTu-8988-T, R1, 3333.33 nM) was 680760, the Reponse (PaTu-8988-T cells; PaTu-8988-T, R1, 10000 nM) was 674680 and the Reponse (PaTu-8988-T cells; PaTu-8988-T, replicate R2, dose 13.72 nM, raw signal) was 1366360. The Reponse (PaTu-8988-T cells; PaTu-8988-T, replicate R2, dose 41.15 nM, raw signal) was 917320, the Reponse (PaTu-8988-T cells; PaTu-8988-T, replicate R2, dose 123.46 nM, raw signal) was 868680 and the Reponse (PaTu-8988-T cells; PaTu-8988-T, replicate R2, dose 370.37 nM, raw signal) was 808920. The Reponse (PaTu-8988-T cells; PaTu-8988-T, replicate R2, dose 3333.33 nM, raw signal) was 899440, the Reponse (PaTu-8988-T cells; PaTu-8988-T, replicate R2, dose 10000 nM, raw signal) was 809960 and the Curve bottom (PaTu-8988-T cells; PaTu-8988-T, GEM curve fit) was 0.31. It also gave a Curve effect size (PaTu-8988-T cells; PaTu-8988-T, GEM curve fit) of 0.68, a Curve slope (PaTu-8988-T cells; PaTu-8988-T, GEM curve fit) of 2.40 and a Curve top (PaTu-8988-T cells; PaTu-8988-T, GEM curve fit) of 0.96. For the same compound, the AUC (PaTu-8988-T cells; PaTu-8988-T, GEM curve fit, in %) was 56.98, the Reponse ([1]; R1, 13.72 nM) was 2430360 and the Reponse ([1]; R1, 41.15 nM) was 2458400. It also gave a Reponse ([1]; R1, 123.46 nM) of 2746800, a Reponse ([1]; R1, 370.37 nM) of 2410520 and a Reponse ([1]; R1, 1111.11 nM) of 2265000. For the same compound, the Reponse ([1]; R1, 3333.33 nM) was 1887440, the Reponse ([1]; R1, 10000 nM) was 1259640 and the Reponse ([1]; R2, 13.72 nM) was 3059000. For the same compound, the Reponse ([1]; R2, 41.15 nM) was 2844720, the Reponse ([1]; R2, 123.46 nM) was 2708840 and the Reponse ([1]; R2, 370.37 nM) was 2516400. For the same compound, the Reponse ([1]; R2, 1111.11 nM) was 2343080, the Reponse ([1]; R2, 3333.33 nM) was 1957840 and the Reponse ([1]; R2, 10000 nM) was 1504480. For the same compound, the Curve bottom ([1]; GEM curve fit) was 0.27, the Curve effect size ([1]; GEM curve fit) was 0.73 and the Curve slope ([1]; GEM curve fit) was 1.67. For the same compound, the Curve top ([1]; GEM curve fit) was 1.00, the AUC ([1]; GEM curve fit, in %) was 48.78 and the EC50 ([1]; read-out: EC50) was 4.34 nM. For the same compound, the EC50 ([1]; read-out: pEC50 (converted)) was 4.37 nM.
